For test [1], the system named is Histone deacetylase 5 (Homo sapiens), Q9UQL6 [H1006Y]. As to the kind of experiment: Inhibition of HDAC5 H1006Y mutant expressed in HEK293 cells. The class given is cell-based.
The subject of test [2] is T1, Histone deacetylase 7 (Homo sapiens), Q8WUI4 [H843Y].
T1 sequence (whole entry): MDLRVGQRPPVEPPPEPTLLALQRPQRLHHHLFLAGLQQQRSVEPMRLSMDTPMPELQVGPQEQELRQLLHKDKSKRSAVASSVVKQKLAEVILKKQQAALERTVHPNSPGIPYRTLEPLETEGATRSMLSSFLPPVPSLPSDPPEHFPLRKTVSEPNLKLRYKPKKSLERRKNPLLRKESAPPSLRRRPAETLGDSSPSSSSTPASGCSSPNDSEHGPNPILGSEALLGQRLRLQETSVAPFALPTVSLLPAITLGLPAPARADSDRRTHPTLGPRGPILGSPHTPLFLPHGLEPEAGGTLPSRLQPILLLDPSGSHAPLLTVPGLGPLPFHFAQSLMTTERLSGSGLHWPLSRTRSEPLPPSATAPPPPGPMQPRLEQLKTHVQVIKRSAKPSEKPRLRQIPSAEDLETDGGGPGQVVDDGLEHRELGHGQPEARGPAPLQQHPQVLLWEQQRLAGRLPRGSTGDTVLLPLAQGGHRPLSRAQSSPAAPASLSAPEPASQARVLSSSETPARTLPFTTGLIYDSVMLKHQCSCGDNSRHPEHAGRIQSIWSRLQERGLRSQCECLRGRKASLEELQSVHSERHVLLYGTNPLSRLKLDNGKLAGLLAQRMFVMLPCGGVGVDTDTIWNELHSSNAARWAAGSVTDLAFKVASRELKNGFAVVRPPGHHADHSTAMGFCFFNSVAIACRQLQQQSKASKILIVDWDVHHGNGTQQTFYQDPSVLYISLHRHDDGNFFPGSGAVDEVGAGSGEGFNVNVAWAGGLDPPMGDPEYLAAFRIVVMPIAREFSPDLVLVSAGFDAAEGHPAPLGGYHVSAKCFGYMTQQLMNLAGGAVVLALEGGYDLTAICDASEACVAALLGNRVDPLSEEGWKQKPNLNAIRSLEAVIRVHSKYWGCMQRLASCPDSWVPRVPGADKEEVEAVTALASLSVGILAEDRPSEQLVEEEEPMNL
Kind of test: Inhibition of HDAC7 H843Y mutant expressed in HEK293 cells. It counts as cell-based.

Test [3] concerns the target T2, Histone deacetylase 4 (Homo sapiens, UniProt P56524). Kind of test: Inhibition of flag-tagged HDAC4 expressed in HEK293 cells upto 10,000 nM by Biomol assay. The class given is cell-based.
The target of test [4] is T2, Histone deacetylase 4. Kind of test: Inhibition of HDAC4 catalytic domain expressed in HEK293 cells upto 10,000 nM by Biomol assay. It counts as cell-based.
The target in test [5] is T2, Histone deacetylase 4. As to the kind of experiment: Inhibition of flag-tagged HDAC4 by pull-down assay.
The target in test [6] is T2, Histone deacetylase 4. Kind of test: Inhibition of flag-tagged HDAC4 by Biomol assay.

The source made the active and inactive calls. The calls are words filed in the database; no cut-off is given here.

T2 sequence (P56524 whole entry, the tested form may be a part): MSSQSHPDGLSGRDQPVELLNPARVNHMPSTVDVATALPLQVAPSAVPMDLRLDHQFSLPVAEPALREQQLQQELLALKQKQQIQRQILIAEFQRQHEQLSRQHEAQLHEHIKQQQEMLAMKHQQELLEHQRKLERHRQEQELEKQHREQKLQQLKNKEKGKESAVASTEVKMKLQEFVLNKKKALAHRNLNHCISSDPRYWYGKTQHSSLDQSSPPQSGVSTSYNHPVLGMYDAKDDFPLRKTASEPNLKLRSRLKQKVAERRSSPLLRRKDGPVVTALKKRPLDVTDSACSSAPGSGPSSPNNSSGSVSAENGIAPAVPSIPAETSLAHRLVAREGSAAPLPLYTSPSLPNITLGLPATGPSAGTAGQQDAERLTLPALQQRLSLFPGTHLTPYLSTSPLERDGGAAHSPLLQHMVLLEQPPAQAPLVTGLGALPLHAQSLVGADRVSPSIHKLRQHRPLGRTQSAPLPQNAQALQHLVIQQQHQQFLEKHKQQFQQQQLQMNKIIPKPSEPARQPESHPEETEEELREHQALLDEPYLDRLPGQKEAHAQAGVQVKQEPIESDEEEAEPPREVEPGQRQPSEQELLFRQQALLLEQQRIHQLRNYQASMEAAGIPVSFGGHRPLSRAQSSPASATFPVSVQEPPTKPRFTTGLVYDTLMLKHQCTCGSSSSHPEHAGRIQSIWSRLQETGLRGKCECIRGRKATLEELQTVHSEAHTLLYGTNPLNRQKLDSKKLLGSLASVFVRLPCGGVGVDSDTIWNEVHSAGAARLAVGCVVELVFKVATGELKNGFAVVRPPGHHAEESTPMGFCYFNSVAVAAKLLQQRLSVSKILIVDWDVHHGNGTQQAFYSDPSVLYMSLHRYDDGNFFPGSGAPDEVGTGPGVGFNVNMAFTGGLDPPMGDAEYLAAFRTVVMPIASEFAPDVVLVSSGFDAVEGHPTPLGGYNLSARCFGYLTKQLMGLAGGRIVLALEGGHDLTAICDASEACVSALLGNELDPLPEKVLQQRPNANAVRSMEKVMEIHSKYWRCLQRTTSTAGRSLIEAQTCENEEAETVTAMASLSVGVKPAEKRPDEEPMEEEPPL
Sequence of Histone deacetylase 5 (Homo sapiens), Q9UQL6 [H1006Y] (Q9UQL6 whole entry H1006Y): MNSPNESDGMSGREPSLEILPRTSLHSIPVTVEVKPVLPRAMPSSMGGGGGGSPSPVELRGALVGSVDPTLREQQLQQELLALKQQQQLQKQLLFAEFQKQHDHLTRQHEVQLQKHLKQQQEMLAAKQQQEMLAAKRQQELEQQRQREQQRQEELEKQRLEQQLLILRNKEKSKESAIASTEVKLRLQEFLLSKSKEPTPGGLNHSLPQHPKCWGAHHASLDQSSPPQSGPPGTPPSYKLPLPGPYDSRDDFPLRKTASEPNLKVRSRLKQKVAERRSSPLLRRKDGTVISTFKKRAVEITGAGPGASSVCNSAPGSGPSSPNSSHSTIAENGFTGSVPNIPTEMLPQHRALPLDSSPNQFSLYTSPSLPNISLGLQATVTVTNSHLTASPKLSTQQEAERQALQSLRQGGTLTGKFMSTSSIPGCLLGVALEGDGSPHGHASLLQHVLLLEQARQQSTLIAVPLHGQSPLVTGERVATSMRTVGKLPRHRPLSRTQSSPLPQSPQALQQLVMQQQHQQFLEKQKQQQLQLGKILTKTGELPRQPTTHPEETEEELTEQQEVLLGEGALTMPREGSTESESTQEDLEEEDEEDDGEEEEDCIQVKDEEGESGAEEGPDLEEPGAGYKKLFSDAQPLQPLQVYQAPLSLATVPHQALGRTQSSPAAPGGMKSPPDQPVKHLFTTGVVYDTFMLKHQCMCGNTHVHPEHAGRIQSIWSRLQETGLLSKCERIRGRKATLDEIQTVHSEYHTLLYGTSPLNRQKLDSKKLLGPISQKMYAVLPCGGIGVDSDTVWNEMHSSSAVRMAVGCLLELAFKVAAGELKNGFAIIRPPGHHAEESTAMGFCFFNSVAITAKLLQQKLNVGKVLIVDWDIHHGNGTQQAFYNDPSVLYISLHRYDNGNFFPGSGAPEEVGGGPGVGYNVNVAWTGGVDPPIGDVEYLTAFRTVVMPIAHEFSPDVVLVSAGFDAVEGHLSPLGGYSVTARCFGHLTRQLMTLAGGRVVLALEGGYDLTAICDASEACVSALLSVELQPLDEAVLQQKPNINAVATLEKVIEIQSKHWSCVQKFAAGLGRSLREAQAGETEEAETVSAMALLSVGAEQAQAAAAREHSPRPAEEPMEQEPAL

For the compound `CCC(=O)CCCCC[C@@H]1NC(=O)[C@H]2CCCCN2C(=O)[C@H]([C@@H](C)CC)NC(=O)[C@H](Cc2cn(OC)c3ccccc23)NC1=O`, the result (in test [1]; in test [2]; at Histone deacetylase 4 [3]; at Histone deacetylase 4 [4]) was inactive.
On to `CCC(=O)CCCCC[C@H](NC(=O)[C@H]1CCCCN1C(=O)[C@@H](NC(=O)[C@@H](N)Cc1cn(OC)c2ccccc12)[C@H](C)CC)C(=O)O`, for which the outcome on Histone deacetylase 4 [3] and at Histone deacetylase 4 [4] was inactive.
In the case of `CCC(=O)CCCCC[C@H](NC(=O)[C@H]1CCCCN1C(=O)[C@@H](NC(=O)[C@@H](N)Cc1cn(OC)c2ccccc12)[C@@H](C)CC)C(=O)O`, the half-inhibitory concentration (IC50) against Histone deacetylase 4 [5] is 152 nM; on Histone deacetylase 4 [6], 88 nM.
Turning to `O=C(/C=C/c1ccc(CN(CCO)CCc2c[nH]c3ccccc23)cc1)NO`, the result in test [1] and in test [2] was Active.

Values taken from ChEMBL document CHEMBL1156529, “Unraveling the hidden catalytic activity of vertebrate class IIa histone deacetylases” (Proc Natl Acad Sci U S A, 2007).
